# Test results reported in patent US20240368664A1, “LIVE YEAST BIOSENSORS AND METHODS OF USE THEREOF” (priority 2021, published 2024).
# Like-named read-outs stand apart in the source and are kept apart here. Residues, ends and D or L forms follow the SMILES beside them. No end group written: not given here.
# T1: S. cerevisiae GPCR (Saccharomyces cerevisiae, UniProt D6VTK4)
# T1 sequence (D6VTK4 whole entry, looked up): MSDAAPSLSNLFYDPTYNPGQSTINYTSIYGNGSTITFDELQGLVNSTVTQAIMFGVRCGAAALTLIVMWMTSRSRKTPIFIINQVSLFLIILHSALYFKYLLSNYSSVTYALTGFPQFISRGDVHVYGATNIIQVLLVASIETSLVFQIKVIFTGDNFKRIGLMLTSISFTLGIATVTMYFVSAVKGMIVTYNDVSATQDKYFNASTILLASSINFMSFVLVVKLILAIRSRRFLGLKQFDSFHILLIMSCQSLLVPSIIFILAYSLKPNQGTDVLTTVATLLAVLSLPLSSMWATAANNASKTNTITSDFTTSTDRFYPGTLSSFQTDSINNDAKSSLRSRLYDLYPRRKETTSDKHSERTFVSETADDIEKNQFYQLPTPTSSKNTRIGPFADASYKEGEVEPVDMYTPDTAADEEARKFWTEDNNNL
# T2: Schizosaccharomyces pombe pheromone GPCR SpSte2 (Schizosaccharomyces pombe) (UniProt Q00619)
# T2 sequence: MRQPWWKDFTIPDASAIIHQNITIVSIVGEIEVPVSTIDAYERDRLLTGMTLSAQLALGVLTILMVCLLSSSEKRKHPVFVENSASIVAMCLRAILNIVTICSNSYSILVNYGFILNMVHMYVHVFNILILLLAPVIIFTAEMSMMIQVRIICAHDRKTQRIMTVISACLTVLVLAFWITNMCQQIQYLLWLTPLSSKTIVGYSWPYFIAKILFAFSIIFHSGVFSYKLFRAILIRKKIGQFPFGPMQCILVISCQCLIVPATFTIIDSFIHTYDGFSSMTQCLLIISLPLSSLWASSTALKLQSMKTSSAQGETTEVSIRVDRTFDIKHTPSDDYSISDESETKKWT
# B1: Schizosaccharomyces octosporus serine carboxypeptidase Sxa2 (SoSxa2) (enzyme)
# chain: MNLAVHVLLLSFLLYTVHSFPAYPPYPIYPRSSLNSSNASSVPIPQPSYNSSSKAMNPDLVTSLPEYSGSLPELYSGYLSAENFKQIFYTFAPAITPTDKFIVWLQGGPGCAGTLGFFSENGPIILDPNHQTPQDNPNSWTRFANMMWIDQPFGTGYSQGSPLASTVSIATSDFIQTLKSFYAKFPEMKEKELYLVGESYGSVWGAYFAQALRSDPELHAIPFGGLGIISGLLSDYETQNTITASMWLDHVNKMGLYYTNESAEVSTFFAAKNQQCGYAEVLERMQFPAEQTPIPKPRVNLTNSFSKKKRQADSDSDSGNIKEAFQMITDCDTYTLTDFLLYLKNHCMITYDITLDCSFNSNNDPLTTYLNRKDVQKQLHAIHVESALTSSKGIFGNGCNYDVYGDIVKNGAPSILEEAIPELVQNYKVSFLAGALDFQLLWTGSLLALQNTTWNGWQGFQEIPDLNSPFGFTLDERNLAFTLSNKVGHMAPSKDPSMVIDWLQKTLLG
# Key:
# A. clavatus GPCR = format: cell-based; conditions: 40 μM peptide
# Procedure: (§1) FIGS. 6A-6B show Aspergillus spp peptide cross-reactivity with Aspergillus spp GPCRs. […] The test concentration was set at 40 μM of a given peptide ligand.
# (§2) Next, 13 GPCRs of all genome-mined Aspergillus species, including A. fumigatus from Example 1 and S. cerevisiae, along with inducible fluorescent readout were integrated into optimized parent strain. S. cerevisiae was included to test cross-reactivity with S. cerevisiae GPCR and peptide, since this peptide/GPCR pair will be used for building multi-cellular amplification communities. Then, each strain was activated with all Aspergillus peptides and S. cerevisiae peptide (FIG. 6A). Most of the Aspergillus GPCRs were responsive to at least one peptide, except A. terreus, A. flavus/A. oryzae (same GPCR sequence), A. niger and A. nidulans which were not responsive to any tested peptide. […] The majority of peptides have the same sequence (A. fischeri, A. fumigatus, A. lentulus, A. novofumigatus, A. udagawae and A. viridinutans) and the other active peptides differ only in the third amino acid position from N-terminus (A. clavatus, A. flavus and A. oryzae).
# [1] = biological target: S. japonicus pheromone peptide (SjPep) (Schizosaccharomyces japonicus); assay: cell-based or functional assay
# [2] = test system: Aspergillus spp and S. cerevisiae GPCRs; format: cell-based; conditions: 40 μM peptide
# Procedure: as §1, §2
# S. cerevisiae GPCR = biological target: T1, S. cerevisiae GPCR; assay: Aspergillus spp peptide/GPCR orthogonality matrix, S. cerevisiae GPCR; format: cell-based; conditions: 40 μM peptide
# Procedure: as §1, §2
# [3] = biological target: T2, Schizosaccharomyces pombe pheromone GPCR SpSte2 (Schizosaccharomyces pombe); assay: cell-based or functional assay
# [4] = biological target: C. albicans pheromone peptide (CaPep) (Candida albicans); assay: cell-based or functional assay
# [5] = test system: CaSte2 with protease CaBar1; conditions: for Hill Slope: CaSte2 + CaBar1 (yBB02), Hill function best-fit ± standard error; for cleavage by CaBar1 protease: judged from CaSte2 activation with/without CaBar1; for EC50: biosensor with protease CaBar1 under intermediate pRPL18B promoter, 10-h incubation
# [6] = test system: CaSte2 with protease CaBar1
# CaSte2 [7] = conditions: CaSte2 (yTC384), no protease; Hill function best-fit ± standard error
# [8] = biological target: S. cerevisiae pheromone peptide (ScPep) (Saccharomyces cerevisiae); assay: cell-based or functional assay
# [9] = test system: CaSte2 with protease CaBar1; conditions: read-out: "EC50" of the first response phase; biphasic dose-response, phase treated as separate Hill fit
# [10] = test system: SjSte2 with peptide proteases; format: cell-based, Schizosaccharomyces japonicus; conditions: read-out: apparent EC50
# AfuSte2 [11] = format: cell-based, A. fumigatus
# fungal cognate receptors = format: cell-based
# AfuSte2 [12] = format: cell-based, A. fumigatus; remark: listed apart in the source
# [13] = test system: AfuSte2 (first member), ScSte2 (second member); format: cell-based, A. fumigatus
# AfuSte2 [14] = format: cell-based, Aspergillus fumigatus; conditions: nasal swab solution; 30° C. and room temperature
# Procedure: (left) and room temperature (right).
# To determine whether the yeast biosensor can detect the targeted pathogen analyte in the presence of the nasal swab solution. The yeast biosensor's ability to detect its cognate fungal biomarker in the presence of the nasal swab solution was tested. […] This experiment involved a biosensor containing an Ste2 homolog from Aspergillus fumigatus (AfuSte2) that produces lycopene in response to its cognate pheromone peptide (AfuPep). […] Experiments were carried out at yeast standard growth conditions, which include at 30° C.; experiments also needed to be conducted at at-home-like temperatures to ensure that the biosensor is viable and active in these settings. When incubated at room temperature, the yeast still produced an observable difference in lycopene compared to the water negative control (FIG. 24).
# AfuSte2 [15] = test system: AfuSte2
# CaSte2 [16] = assay: CaSte2 biosensor with lycopene readout, without CaBar1 (yTC646); conditions: -CaBar1 strain; 50-300 nM peptide; 1-h preincubation, 7-h incubation
# [17] = biological target: S. octosporus pheromone peptide (SoPep) (Schizosaccharomyces octosporus); assay: cell-based or functional assay
# [18] = fine-tuned optimized strain (yTC453/pDR01)
# [19] = natural signaling pathway (yMJ194/pDR01)
molecule,measurement,setting,value
WCALPGQGC [A. oryzae peptide],response of A. clavatus GPCR,A. clavatus GPCR,strongest response
Schizosaccharomyces japonicus serine carboxypeptidase Sxa2 (SjSxa2) (enzyme),shift of apparent EC50 on the cognate GPCR with the protease co-expressed (order of magnitude),[1],1
WCELPGQGC [A. clavatus peptide],response of A. clavatus GPCR,A. clavatus GPCR,strongest response
WCRFAGRIC (SEQ ID NO: 1) or WCRFRGQVC [A. nidulans peptide],activation of tested GPCRs,[2],did not activate any tested GPCR
"WCWLPGQGC [A. terreus peptide, A. terreus pheromone peptide]",cross-reaction with S. cerevisiae GPCR,S. cerevisiae GPCR,cross-reacted
SDS,concentration that does not impact the vitality and function of the live yeast biosensor,live yeast biosensor,up to 0.01%
S. pombe pheromone peptide (SpPep),"apparent EC50, ymTurquoise2, strain co-expressing SpSxa2",[3],100000 nM
Candida albicans Bar1 aspartyl protease (CaBar1) (enzyme),shift of apparent EC50 on the cognate GPCR with the protease co-expressed (order of magnitude),[4],1
CC(C)C[C@H](NC(=O)[C@H](CCCNC(=N)N)NC(=O)[C@H](Cc1ccccc1)NC(=O)CN)C(=O)N[C@H](C(=O)N[C@@H](CC(N)=O)C(=O)N[C@@H](Cc1ccccc1)C(=O)NCC(=O)N[C@@H](Cc1ccc(O)cc1)C(=O)N[C@@H](Cc1ccccc1)C(=O)N[C@@H](CCC(=O)O)C(=O)N1CCC[C@H]1C(=O)N[C@@H](C)C(=O)O)[C@@H](C)O [CaPep13A],Hill Slope,[5],0.94 ± 0.06
same,cleavage by CaBar1 protease,[5],cleavable
same,cleavage by CaBar1 protease,[5]; listed as GFRLTNFGYFEPA,specifically cleaved
same,EC50,"[6]; +CaBar1 strain, lycopene, 1-h preincubation before adding peptides, 8-h incubation",1000 nM
same,"effect of CaBar1 on color onset, lycopene readout","[6]; liquid culture, same peptide concentrations, 1-h preincubation, 8-h incubation (FIG. 37)",diminishes color onset
same,Hill Slope,CaSte2 [7],0.81 ± 0.04
Saccharomyces cerevisiae Bar1 aspartyl protease (ScBar1) (from UniProt P12630 25-587) (enzyme),shift of apparent EC50 on the cognate GPCR with the protease co-expressed (order of magnitude),[8],1
GARLTNFGYFEPA [CaPep2A13A],Hill Slope,[5],0.86 ± 0.10
same,EC50,[5],~70 nM
same,cleavage by CaBar1 protease,[5],non-cleavable
same,EC50,[9],~0.3 nM
same,Hill Slope,CaSte2 [7],1.2 ± 0.1
VSDRVKQMLSHWWNERNPDTANL [SjPep],EC50,[10],> 100000 nM
CC(C)C[C@H](NC(=O)[C@H](Cc1c[nH]cn1)NC(=O)[C@H](CS)NC(=O)[C@@H](N)Cc1c[nH]c2ccccc12)C(=O)N1CCC[C@H]1C(=O)NCC(=O)N[C@@H](CCC(N)=O)C(=O)NCC(=O)N[C@@H](CS)C(=O)O [AfuPep] (H-WCHLPGQGC-OH; N-terminus and C-terminus assumed),LoD / color detection limit in liquid culture,AfuSte2 [11],50 nM
same,limit of detection (LoD) in liquid culture,AfuSte2 [11],~30 nM
same,time to faint visible color in culture pellets,AfuSte2 [11],one hour
same,time to obvious color change in liquid culture,AfuSte2 [11],two hours
same,activation of fungal cognate receptors by AfuPep,fungal cognate receptors,nor did AfuPep activate fungal cognate receptors
same,fluorescence intensity relative to background fluorescence,AfuSte2 [12],two-fold
same,fold lower AfuPep concentration at which receiver strain responds vs sender strain,[13],8 fold
same,lycopene production in the presence of human biospecimens,AfuSte2 [14],produces lycopene only when AfuPep is present
same,fold change of fluorescence readout compared to background,"AfuSte2 [15]; AfuSte2 on plasmid, inducible mCherry in optimized strain, FIG. 1B","around 4,000 fold"
same,EC50,AfuSte2 [15]; [18],~40 nM
same,activation fold change,AfuSte2 [15]; [18],"2,900 fold"
same,basal expression,AfuSte2 [15]; [18],practically zero
same,maximal activation,AfuSte2 [15]; [18],"~2,900 A.U."
same,EC50,AfuSte2 [15]; [19],~10 nM
same,activation fold change,AfuSte2 [15]; [19],19 fold
same,maximal activation,AfuSte2 [15]; [19],~450 A.U.
same,basal expression,AfuSte2 [15]; older strain with natural signaling pathway (yMJ194/pDR01),~20 A.U.
same,EC50,"AfuSte2 [15]; read-out: EC50 value (concentration of peptide required for half-maximal activation), AfuSte2 on plasmid, inducible mCherry in optimized strain, FIG. 1B",~100 nM
GARLTNFGYFEPG [CaPep2A],Hill Slope,[5],1.6 ± 0.3
same,EC50,[5],~40 nM
same,cleavage by CaBar1 protease,[5],does not cleave
same,color development in yeast pellets,CaSte2 [16],robust orange color development
same,EC50,[9],~1 nM
same,Hill Slope,CaSte2 [7],1.4 ± 0.3
Tween20,concentration that does not impact the vitality and function of the live yeast biosensor,live yeast biosensor,up to 0.05%
B1,shift of apparent EC50 on the cognate GPCR with the protease co-expressed (orders of magnitude),[17],1.5
